ChEMBL document CHEMBL4507291 (2021)

Assays:
[1] = molecular target: Transient receptor potential cation channel subfamily M member 6 (Homo sapiens) (UniProt Q9BX84)
[2] = molecular target: Tyrosine-protein kinase Lyn (Homo sapiens) (UniProt P07948)
[3] = molecular target: Phosphatidylinositol 4-kinase beta (Homo sapiens) (UniProt Q9UBF8)
[4] = molecular target: T1, Serine/threonine-protein kinase TAO2 (Homo sapiens) (UniProt Q9UL54)
T1 sequence (whole entry): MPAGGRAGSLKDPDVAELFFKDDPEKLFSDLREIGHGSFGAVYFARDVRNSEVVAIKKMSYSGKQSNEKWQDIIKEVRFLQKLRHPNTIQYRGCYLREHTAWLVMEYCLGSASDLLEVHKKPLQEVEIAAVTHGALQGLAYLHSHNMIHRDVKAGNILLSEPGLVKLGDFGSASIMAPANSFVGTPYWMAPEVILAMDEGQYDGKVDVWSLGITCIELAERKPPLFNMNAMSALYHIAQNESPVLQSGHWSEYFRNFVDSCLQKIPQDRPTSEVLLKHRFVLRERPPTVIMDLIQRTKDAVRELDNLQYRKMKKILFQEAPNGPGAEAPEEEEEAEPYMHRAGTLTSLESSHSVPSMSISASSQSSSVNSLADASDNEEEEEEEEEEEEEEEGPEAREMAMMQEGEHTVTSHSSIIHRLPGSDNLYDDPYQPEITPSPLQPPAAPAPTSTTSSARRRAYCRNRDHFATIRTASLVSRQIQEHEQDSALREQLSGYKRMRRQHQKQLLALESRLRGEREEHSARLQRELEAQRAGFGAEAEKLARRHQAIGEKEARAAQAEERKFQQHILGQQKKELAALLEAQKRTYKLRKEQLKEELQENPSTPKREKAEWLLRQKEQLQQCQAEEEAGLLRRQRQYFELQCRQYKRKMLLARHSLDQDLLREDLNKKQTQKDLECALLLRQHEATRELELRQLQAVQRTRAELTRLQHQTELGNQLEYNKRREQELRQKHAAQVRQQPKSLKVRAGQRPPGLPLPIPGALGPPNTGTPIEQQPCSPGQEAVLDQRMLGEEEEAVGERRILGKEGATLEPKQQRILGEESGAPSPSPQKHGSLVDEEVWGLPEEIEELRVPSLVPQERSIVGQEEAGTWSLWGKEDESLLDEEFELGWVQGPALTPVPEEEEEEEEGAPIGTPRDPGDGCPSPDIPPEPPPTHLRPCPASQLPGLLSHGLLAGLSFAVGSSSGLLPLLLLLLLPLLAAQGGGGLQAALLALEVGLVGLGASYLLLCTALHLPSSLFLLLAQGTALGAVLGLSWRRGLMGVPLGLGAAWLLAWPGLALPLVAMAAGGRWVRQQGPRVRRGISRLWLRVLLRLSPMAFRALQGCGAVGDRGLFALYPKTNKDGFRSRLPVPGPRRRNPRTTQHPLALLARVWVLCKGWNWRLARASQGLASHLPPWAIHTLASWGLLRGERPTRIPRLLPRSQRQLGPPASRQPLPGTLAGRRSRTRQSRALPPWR

[5] = molecular target: T2, Serine/threonine-protein kinase Chk1 (Homo sapiens) (UniProt O14757)
T2 sequence (whole entry): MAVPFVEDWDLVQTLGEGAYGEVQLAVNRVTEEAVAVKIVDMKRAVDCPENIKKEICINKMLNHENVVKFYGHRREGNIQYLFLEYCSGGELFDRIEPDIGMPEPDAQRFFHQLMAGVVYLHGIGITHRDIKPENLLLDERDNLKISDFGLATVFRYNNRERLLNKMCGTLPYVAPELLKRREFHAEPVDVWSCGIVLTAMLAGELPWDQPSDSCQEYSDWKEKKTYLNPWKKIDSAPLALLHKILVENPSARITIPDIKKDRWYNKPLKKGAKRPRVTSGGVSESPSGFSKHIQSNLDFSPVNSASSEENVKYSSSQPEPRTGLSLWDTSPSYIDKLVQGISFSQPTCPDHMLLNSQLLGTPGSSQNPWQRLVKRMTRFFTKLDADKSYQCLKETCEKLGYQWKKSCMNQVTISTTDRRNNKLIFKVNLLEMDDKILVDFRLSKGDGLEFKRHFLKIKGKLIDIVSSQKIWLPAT

[6] = molecular target: Mitogen-activated protein kinase kinase kinase 12 (Homo sapiens) (UniProt Q12852)
[7] = molecular target: Receptor-interacting serine/threonine-protein kinase 1 (Homo sapiens) (UniProt Q13546)
[8] = system: Hepatocyte growth factor receptor (Homo sapiens), P08581 [Y1235D]
[9] = molecular target: T3, Serine/threonine-protein kinase D2 (Homo sapiens) (UniProt Q9BZL6)
T3 sequence (whole entry): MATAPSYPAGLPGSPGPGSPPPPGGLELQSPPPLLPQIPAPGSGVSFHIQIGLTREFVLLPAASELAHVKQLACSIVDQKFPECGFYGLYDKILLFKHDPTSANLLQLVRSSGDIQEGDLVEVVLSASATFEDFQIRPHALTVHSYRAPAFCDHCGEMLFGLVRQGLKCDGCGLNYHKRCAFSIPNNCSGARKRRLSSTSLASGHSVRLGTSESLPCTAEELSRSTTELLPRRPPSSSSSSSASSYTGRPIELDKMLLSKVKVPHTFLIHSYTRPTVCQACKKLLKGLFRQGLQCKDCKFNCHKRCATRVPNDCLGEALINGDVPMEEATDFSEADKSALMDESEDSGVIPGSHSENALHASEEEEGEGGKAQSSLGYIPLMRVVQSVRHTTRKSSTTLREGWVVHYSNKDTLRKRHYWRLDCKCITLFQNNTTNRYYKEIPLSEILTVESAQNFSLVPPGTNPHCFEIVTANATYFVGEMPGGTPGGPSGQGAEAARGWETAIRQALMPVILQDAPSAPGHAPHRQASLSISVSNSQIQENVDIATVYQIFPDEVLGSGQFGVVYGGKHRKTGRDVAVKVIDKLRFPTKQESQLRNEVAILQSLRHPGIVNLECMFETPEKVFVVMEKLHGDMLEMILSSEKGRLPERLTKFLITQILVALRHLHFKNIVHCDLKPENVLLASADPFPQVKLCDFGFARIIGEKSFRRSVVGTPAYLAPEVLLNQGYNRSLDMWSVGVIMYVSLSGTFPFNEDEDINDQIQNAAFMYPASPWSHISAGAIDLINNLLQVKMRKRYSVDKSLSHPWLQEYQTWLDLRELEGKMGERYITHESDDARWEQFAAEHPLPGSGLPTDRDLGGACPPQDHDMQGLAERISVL

[10] = molecular target: Dual specificity protein kinase CLK1 (Homo sapiens) (UniProt P49759)
[11] = Compound concentration 100.0 nM
[12] = Compound concentration 1000.0 nM

Measured: residual activity

Chain of Mitogen-activated protein kinase kinase kinase 12 (Homo sapiens) (Q12852 whole entry): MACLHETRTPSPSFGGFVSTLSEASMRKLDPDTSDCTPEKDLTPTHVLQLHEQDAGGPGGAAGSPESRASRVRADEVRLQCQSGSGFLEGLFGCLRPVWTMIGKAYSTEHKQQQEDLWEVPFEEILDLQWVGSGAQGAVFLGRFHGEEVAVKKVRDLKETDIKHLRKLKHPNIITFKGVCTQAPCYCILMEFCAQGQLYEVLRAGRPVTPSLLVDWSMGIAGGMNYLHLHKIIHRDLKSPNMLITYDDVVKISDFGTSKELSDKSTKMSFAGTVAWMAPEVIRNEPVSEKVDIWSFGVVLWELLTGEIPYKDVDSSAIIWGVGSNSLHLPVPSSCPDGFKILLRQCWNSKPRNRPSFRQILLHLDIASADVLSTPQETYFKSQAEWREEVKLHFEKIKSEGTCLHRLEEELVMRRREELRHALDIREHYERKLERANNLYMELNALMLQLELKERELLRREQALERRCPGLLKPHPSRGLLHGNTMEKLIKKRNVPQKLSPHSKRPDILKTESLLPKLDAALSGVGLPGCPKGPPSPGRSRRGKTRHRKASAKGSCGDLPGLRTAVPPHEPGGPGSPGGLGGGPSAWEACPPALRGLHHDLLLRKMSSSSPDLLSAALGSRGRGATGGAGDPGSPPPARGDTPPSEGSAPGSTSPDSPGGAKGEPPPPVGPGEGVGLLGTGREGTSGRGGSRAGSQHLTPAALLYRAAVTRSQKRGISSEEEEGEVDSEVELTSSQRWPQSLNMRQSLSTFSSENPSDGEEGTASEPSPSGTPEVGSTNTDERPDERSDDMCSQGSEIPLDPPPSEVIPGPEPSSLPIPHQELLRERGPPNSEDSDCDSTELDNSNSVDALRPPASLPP
Chain of Transient receptor potential cation channel subfamily M member 6 (Homo sapiens) (Q9BX84 whole entry): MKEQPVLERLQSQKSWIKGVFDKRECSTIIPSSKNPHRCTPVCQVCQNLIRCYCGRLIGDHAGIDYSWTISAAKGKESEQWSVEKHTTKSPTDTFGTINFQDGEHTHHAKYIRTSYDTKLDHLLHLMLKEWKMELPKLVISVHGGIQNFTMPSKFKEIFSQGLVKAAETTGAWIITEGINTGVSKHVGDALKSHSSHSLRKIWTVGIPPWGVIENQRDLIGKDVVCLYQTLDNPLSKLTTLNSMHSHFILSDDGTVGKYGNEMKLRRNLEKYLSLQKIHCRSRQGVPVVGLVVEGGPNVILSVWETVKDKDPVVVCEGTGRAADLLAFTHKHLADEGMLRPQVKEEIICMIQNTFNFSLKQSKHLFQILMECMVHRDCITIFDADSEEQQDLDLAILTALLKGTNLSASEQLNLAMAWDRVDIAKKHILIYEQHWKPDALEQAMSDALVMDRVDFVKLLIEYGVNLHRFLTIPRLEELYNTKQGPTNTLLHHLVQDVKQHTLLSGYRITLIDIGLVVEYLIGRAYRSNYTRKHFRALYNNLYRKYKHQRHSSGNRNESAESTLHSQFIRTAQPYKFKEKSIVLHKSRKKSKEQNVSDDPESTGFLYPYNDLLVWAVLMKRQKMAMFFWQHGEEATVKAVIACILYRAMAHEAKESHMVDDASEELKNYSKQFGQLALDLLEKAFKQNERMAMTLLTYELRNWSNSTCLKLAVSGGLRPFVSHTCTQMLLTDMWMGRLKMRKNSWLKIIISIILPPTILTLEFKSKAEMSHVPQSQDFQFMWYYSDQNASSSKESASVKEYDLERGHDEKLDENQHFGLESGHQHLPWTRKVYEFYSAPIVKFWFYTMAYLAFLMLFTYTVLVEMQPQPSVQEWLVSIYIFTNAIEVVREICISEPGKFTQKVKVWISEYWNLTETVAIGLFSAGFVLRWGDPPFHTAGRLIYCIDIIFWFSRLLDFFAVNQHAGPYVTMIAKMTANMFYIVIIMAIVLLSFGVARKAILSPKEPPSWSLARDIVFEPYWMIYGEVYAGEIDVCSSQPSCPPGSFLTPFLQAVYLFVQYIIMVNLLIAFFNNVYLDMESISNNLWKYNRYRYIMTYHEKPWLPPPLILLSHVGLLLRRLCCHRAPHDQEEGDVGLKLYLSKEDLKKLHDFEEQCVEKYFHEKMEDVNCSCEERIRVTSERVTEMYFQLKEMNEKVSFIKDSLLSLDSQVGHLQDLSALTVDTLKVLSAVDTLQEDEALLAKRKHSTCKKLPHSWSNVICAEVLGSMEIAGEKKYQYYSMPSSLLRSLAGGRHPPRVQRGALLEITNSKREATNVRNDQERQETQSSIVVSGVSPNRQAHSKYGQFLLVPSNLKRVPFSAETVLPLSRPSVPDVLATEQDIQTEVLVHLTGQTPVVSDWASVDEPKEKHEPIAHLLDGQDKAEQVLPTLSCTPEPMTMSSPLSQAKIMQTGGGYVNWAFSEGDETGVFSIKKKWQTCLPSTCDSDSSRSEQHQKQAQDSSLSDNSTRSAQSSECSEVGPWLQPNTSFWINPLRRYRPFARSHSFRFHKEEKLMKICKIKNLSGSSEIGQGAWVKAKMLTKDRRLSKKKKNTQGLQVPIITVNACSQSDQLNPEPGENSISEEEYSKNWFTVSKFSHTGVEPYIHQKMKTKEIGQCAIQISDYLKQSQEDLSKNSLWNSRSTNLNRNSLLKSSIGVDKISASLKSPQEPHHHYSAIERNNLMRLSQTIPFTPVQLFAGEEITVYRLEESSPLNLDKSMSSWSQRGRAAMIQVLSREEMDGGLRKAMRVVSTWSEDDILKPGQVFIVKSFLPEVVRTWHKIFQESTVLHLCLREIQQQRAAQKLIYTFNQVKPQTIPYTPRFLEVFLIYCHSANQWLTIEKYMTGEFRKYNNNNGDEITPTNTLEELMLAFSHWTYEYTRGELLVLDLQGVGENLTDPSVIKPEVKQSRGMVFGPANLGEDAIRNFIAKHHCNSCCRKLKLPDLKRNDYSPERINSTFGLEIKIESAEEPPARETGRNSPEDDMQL
Chain of Phosphatidylinositol 4-kinase beta (Homo sapiens) (Q9UBF8 2-816 limits assumed): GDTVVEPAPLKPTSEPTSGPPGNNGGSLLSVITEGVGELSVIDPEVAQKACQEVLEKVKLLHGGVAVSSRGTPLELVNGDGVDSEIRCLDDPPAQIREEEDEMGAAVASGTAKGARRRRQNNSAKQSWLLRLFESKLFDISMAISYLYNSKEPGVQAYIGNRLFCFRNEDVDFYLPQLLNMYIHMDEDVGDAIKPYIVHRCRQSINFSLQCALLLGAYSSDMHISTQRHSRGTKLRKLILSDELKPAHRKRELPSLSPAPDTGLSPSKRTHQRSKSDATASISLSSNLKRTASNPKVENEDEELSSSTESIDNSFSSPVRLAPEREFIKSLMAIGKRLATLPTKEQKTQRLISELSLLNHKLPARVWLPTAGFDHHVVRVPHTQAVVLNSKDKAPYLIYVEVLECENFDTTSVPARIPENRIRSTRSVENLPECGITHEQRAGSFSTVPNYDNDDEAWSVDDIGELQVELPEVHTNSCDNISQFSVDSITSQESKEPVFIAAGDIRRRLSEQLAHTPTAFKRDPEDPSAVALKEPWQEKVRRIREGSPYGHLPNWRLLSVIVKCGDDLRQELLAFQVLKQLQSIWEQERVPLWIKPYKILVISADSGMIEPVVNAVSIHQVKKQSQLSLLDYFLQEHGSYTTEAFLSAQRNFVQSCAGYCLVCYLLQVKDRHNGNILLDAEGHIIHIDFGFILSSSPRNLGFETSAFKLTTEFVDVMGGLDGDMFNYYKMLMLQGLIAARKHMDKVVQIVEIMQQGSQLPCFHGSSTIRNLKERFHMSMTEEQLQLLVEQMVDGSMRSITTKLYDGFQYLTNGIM
Chain of Tyrosine-protein kinase Lyn (Homo sapiens) (P07948 2-512 limits assumed): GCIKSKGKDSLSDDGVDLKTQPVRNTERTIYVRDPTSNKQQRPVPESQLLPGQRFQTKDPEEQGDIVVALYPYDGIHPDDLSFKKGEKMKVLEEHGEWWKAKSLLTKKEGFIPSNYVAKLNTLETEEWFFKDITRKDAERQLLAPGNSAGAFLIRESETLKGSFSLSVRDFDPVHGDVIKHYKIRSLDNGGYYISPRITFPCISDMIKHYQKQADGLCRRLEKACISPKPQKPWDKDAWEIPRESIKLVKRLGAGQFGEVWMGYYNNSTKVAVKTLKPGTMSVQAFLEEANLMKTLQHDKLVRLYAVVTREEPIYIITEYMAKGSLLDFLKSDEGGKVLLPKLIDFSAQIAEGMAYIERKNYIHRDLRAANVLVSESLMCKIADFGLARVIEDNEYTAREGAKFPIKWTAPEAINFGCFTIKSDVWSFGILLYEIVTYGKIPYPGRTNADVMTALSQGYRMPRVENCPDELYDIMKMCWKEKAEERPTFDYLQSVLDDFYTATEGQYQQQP
Chain of Dual specificity protein kinase CLK1 (Homo sapiens) (P49759 whole entry, looked up): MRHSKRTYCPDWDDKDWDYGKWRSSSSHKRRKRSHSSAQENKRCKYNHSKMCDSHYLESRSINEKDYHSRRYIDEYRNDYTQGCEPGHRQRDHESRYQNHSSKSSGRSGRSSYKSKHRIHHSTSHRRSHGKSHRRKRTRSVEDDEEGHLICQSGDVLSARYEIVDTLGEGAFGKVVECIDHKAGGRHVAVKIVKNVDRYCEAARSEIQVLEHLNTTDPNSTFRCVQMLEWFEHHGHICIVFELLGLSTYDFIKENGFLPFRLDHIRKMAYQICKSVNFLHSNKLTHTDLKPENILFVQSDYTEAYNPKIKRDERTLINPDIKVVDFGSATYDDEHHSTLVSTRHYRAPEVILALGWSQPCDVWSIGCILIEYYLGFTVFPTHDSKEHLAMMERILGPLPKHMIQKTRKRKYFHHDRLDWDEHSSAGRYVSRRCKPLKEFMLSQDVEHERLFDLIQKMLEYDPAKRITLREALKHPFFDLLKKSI

C[C@@H]1CN(c2cc(-c3n[nH]c4ccc(OC5(C)CC5)cc34)ncn2)C[C@H](C)O1 [MLi-2]
inactive: [1]; [11] 64% | [2]; [11] 98% | [3]; [11] 100% | [4]; [11] 73% | [5]; [11] 90% | [6]; [11] 82% | [7]; [11] 100% | [8]; [11] 92% | [9]; [11] 100% | [10]; [11] 86%

C[C@@H]1CN(c2cc(-c3nn(C)c4ccc(OC5(C)CC5)cc34)ncn2)C[C@H](C)O1 [MLi-2-NC]
inactive: [1]; [12] 85% | [2]; [12] 82% | [3]; [12] 89% | [4]; [12] 80% | [5]; [12] 57% | [6]; [12] 61% | [7]; [12] 98% | [8]; [12] 87% | [9]; [12] 90% | [10]; [12] 86%
